# Reference: patent US9814241B2
# Columns and labels:
# [1] = system: Alternaria solani; assay: Alternaria test (tomatoes)/preventive; assay type: in vivo; conditions: preventive, evaluated 3 days after inoculation
# [2] = system: Venturia inaequalis; assay: Venturia test (apples)/preventive; conditions: preventive, 100 ppm a.i., evaluated 10 days after inoculation
# Description: After the spray coating has dried on, the plants are inoculated with an aqueous conidia suspension of the causal agent of apple scab (Venturia inaequalis) and then remain for 1 day in an incubation cabinet at approximately 20° C. and a relative atmospheric humidity of 100%.
# The plants are then placed in a greenhouse at approximately 21° C. and a relative atmospheric humidity of approximately 90%.
# The test is evaluated 10 days after the inoculation.
# [3] = system: Sphaerotheca fuliginea; assay: Sphaerotheca test (cucumbers)/preventive; conditions: preventive, 100 ppm a.i., evaluated 7 days after inoculation
# Description: After the spray coating has dried on, the plants are inoculated with an aqueous spore suspension of Sphaerotheca fuliginea. The plants are then placed in a greenhouse at approximately 23° C. and a relative atmospheric humidity of approximately 70%.
# The test is evaluated 7 days after the inoculation.
compound,measurement,setting,value
"N#Cc1ccccc1NC(=O)c1snc(Cl)c1Cl [F187, isotianil]",Efficacy in % Found,"[1]; Table C1, tomatoes, 50 ppm a.i.",36%
same,Efficacy in % Found,[2],0%
same,Efficacy in % Found,[3],0%
fosetyl-aluminium [F281],Efficacy in % Found,"[1]; Table C2, tomatoes, 100 ppm a.i.",0%
phosphorous acid and its salts [F298],Efficacy in % Found,"[1]; Table C2, tomatoes, 400 ppm a.i.",35%
"Cc1cc(C(F)(F)F)nn1CC(=O)N1CCC(c2nc(C3=NOC(c4c(F)cccc4F)C3)cs2)CC1 (stereo not drawn) [F315, 1-(4-{4-[5-(2,6-difluorophenyl)-4,5-dihydro-1,2-oxazol-3-yl]-1,3-thiazol-2-yl}piperidin-1-yl)-2-[5-methyl-3-(trifluoromethyl)-1H-pyrazol-1-yl]ethanone]",Efficacy in % Found,"[1]; Table C1, tomatoes, 100 ppm a.i.",0%
